This is an account of results in patent publication US20250206761A1, “HALOINDOLE MACROCYCLIC COMPOUNDS FOR THE TREATMENT OF CANCER” (Hoffmann-La Roche Inc., priority 2022, published 2025).

The test system of assay [1] is phosphorylation of ERK, KRAS G12D in AGS cells. Briefly: pERK inhibition assay, KRAS G12D. Format: cell-based, human. The settings on record: Homo sapiens, 4 hours. The essentials:
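Cells in RPMI-1640 with 10% FBS were plated overnight (NCJ-H358 30,000, AGS 20,000, SW620 30,000 cells/well), then exposed to compounds in 0.5% DMSO for 4 h. Fixed, methanol-permeabilized cells were probed for pERK by HRP-based in-cell ELISA with TMB, OD450; IC50 from 4-parameter sigmoidal fit.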

The target of another assay is KRAS G12C-BRAF complex (Homo sapiens (Human), UniProt P01116+P62937, G12C). Briefly: KRAS G12C-BRAF NanoBit assay. Format: cell-based. The settings on record: HEK293 cells, 3 hours of incubation. The essentials: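 Stable HEK293 pool co-expressing SmBit-KRAS G12C and BRAF RBD-LgBit; 10,000 cells/well incubated 3 h with compound, 16-point 3-fold dilution from 30 μM final. Live-cell Nano-Glo substrate added, luminescence read at 20 min; disruption seen as luminescence decrease vs DMSO.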

The target in assay [2] is KRAS G12V binding to BRAF (Homo sapiens (Human), UniProt P01116+P62937, G12V). Briefly: KRAS-BRAF with CYPA (500 nM) interaction assay (TR-FRET), G12V. It counts as biochemical. The essentials:
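A TR-FRET assay measured how compound, in the presence of CYPA, disrupts binding of GMPPNP-loaded 6His-KRAS G12V to BRAF. The buffer contained 25 mM HEPES PH=7.4, 0.002% Tween20, 0.1% BSA, 100 mM NaCl, 5 mM MgCl2 and 10 μM GMPPNP. Compounds ran as a 16-point 3-fold dilution series from 10 μM for 3 hours.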
On the technique in general: Time-resolved FRET reads energy transfer from a long-lived donor to a nearby acceptor.

A word on the IC50: it is the concentration that gives 50% inhibition. The low end stands for higher potency, the high end for lower potency.

Structures are written as SMILES. A value given as a limit tells only on which side of the number the result lay.

Chain of KRAS G12V binding to BRAF (P01116-2 other isoform, or with tags, fused parts or gaps G12V): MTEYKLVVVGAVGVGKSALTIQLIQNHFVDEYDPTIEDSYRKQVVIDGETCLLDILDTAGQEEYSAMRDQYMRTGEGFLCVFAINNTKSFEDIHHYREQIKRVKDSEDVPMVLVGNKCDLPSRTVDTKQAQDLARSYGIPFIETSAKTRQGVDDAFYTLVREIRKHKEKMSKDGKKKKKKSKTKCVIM
Chain of KRAS G12V binding to BRAF (P62937 whole entry): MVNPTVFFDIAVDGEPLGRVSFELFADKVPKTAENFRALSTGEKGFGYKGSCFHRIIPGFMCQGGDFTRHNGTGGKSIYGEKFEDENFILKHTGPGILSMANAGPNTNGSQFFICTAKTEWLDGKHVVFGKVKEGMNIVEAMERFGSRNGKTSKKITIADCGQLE
Chain of KRAS G12C-BRAF complex (P01116-2 other isoform, or with tags, fused parts or gaps G12C): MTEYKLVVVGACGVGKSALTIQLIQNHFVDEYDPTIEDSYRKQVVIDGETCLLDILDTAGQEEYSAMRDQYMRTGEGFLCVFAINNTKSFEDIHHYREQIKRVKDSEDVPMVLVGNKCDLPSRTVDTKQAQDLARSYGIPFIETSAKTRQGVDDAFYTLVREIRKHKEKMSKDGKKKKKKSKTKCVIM
Chain of KRAS G12C-BRAF complex (P62937 whole entry): as the sequence (P62937 whole entry) above

Take `CO[C@@H](C)c1ncc(N2CCN(C)CC2)cc1-c1c2c3cc(c(F)cc3n1CC(F)(F)F)-c1csc(n1)C[C@H](NC(=O)[C@H](C(C)C)N1CCC[C@@]3(CCN(C(=O)[C@H](F)Cl)C3)C1=O)C(=O)N1CCC[C@H](N1)C(=O)OCC(C)(C)C2` (single isomer, unassigned) [Example 16]: the values for the IC50 (in assay [1]; at KRAS G12C-BRAF complex; in assay [2]) were 19 nM, 8 nM and above 10000 nM, respectively.

With `CO[C@@H](C)c1ncc(N2CCN(C)CC2)cc1-c1c2c3cc(c(F)cc3n1CC(F)(F)F)-c1csc(n1)C[C@H](NC(=O)[C@H](C(C)C)N1CCC[C@]3(CCN(C(=O)[C@H](F)Cl)C3)C1=O)C(=O)N1CCC[C@H](N1)C(=O)OCC(C)(C)C2` (single isomer, unassigned) [Example 18], the half-maximal inhibitory concentration (IC50) in assay [1] came to 26 nM; at KRAS G12C-BRAF complex, 12 nM; in assay [2], 3330 nM.

`CO[C@@H](C)c1ncc(N2CCN(C)CC2)cc1-c1c2c3c(F)c(ccc3n1CC(F)(F)F)-c1csc(n1)C[C@H](NC(=O)[C@H](C(C)C)N1CCCC3(CCN(C(=O)[C@H](F)Cl)CC3)C1=O)C(=O)N1CCC[C@H](N1)C(=O)OCC(C)(C)C2` (atropisomer, axis not shown; (M)) [Example 20, (2S)-2-[9-[(2R)-2-chloro-2-fluoro-acetyl]-1-oxo-2,9-diazaspiro[5.5]undecan-2-yl]-N-[(7S,13S)-25-fluoro-(20M)-20-[2-[(1S)-1-methoxyethyl]-5-(4-methylpiperazin-1-yl)-3-pyridyl]-17,17-dimethyl-8,14-dioxo-21-(2,2,2-trifluoroethyl)-15-oxa-4-thia-9,21,27,28-tetrazapentacyclo[17.5.2.1^2,5.1^9,13.0^22,26]octacosa-1(25),2,5(28),19,22(26),23-hexaen-7-yl]-3-methyl-butanamide]: the IC50 in assay [1] was determined as 98 nM; on KRAS G12C-BRAF complex, 47 nM; in assay [2], 1780 nM.

For `CCn1c(-c2cc(N3CCN(CC(F)(F)F)CC3)cnc2[C@H](C)OC)c2c3cc(c(F)cc31)-c1csc(n1)C[C@H](NC(=O)[C@H](C(C)C)N(C)C(=O)C1(F)CCN(C(=O)[C@H](F)Cl)CC1)C(=O)N1CCC[C@H](N1)C(=O)OCC(C)(C)C2` (atropisomer, axis not shown; (M)) [Example 49, 1-[(2R)-2-chloro-2-fluoro-acetyl]-N-[(1S)-1-[[(7S,13S)-21-ethyl-24-fluoro-(20M)-20-[2-[(1S)-1-methoxyethyl]-5-[4-(2,2,2-trifluoroethyl)piperazin-1-yl]-3-pyridyl]-17,17-dimethyl-8,14-dioxo-15-oxa-4-thia-9,21,27,28-tetrazapentacyclo[17.5.2.1^2,5.1^9,13.0^22,26]octacosa-1(25),2,5(28),19,22(26),23-hexaen-7-yl]carbamoyl]-2-methyl-propyl]-4-fluoro-N-methyl-piperidine-4-carboxamide], the IC50 in assay [1] was determined as 65 nM; against KRAS G12C-BRAF complex, 8 nM; in assay [2], 577 nM.

Take `CO[C@@H](C)c1ncc(N2CCN(C)CC2)cc1-c1c2c3cc(c(F)cc3n1CC(F)(F)F)-c1csc(n1)C[C@H](NC(=O)[C@H](C(C)C)N(C)C(=O)C1(F)CCN(C(=O)[C@H](F)Cl)CC1)C(=O)N1CCC[C@H](N1)C(=O)OCC(C)(C)C2` (atropisomer, axis not shown; (M)) [Example 10, 1-[(2R)-2-chloro-2-fluoro-acetyl]-4-fluoro-N-[(1S)-1-[[(7S,13S)-24-fluoro-(20M)-20-[2-[(1S)-1-methoxyethyl]-5-(4-methylpiperazin-1-yl)-3-pyridyl]-17,17-dimethyl-8,14-dioxo-21-(2,2,2-trifluoroethyl)-15-oxa-4-thia-9,21,27,28-tetrazapentacyclo[17.5.2.1^2,5.1^9,13.0^22,26]octacosa-1(25),2,5(28),19,22(26),23-hexaen-7-yl]carbamoyl]-2-methyl-propyl]-N-methyl-piperidine-4-carboxamide]: the IC50 in assay [1] came to 16 nM; on KRAS G12C-BRAF complex, 4 nM; in assay [2], 136 nM.

As for `CCn1c(-c2cc(N3CCOCC3)cnc2[C@H](C)OC)c2c3cc(c(F)cc31)-c1csc(n1)C[C@H](NC(=O)[C@H](C(C)C)N(C)C(=O)[C@H]1CCN(C(=O)[C@H](F)Cl)C1)C(=O)N1CCC[C@H](N1)C(=O)OCC(C)(C)C2` (atropisomer, axis not shown; (M)) [Example 55, (3S)-1-[(2R)-2-chloro-2-fluoro-acetyl]-N-[(1S)-1-[[(7S,13S)-21-ethyl-24-fluoro-(20M)-20-[2-[(1S)-1-methoxyethyl]-5-morpholino-3-pyridyl]-17,17-dimethyl-8,14-dioxo-15-oxa-4-thia-9,21,27,28-tetrazapentacyclo[17.5.2.1^2,5.1^9,13.0^22,26]octacosa-1(25),2,5(28),19,22(26),23-hexaen-7-yl]carbamoyl]-2-methyl-propyl]-N-methyl-pyrrolidine-3-carboxamide], the figures for the IC50 (in assay [1]; at KRAS G12C-BRAF complex; in assay [2]) were 106 nM, 10 nM and 2110 nM, respectively.

Consider `CO[C@@H](C)c1ncc(N2CCN(C)CC2)cc1-c1c2c3cc(c(F)cc3n1CC(F)(F)F)-c1csc(n1)C[C@H](NC(=O)[C@H](C(C)C)N1CCCC3(CN(C(=O)[C@H](F)Cl)C3)C1=O)C(=O)N1CCC[C@H](N1)C(=O)OCC(C)(C)C2` (atropisomer, axis not shown; (M)) [Example 11, (2S)-2-[2-[(2R)-2-chloro-2-fluoro-acetyl]-5-oxo-2,6-diazaspiro[3.5]nonan-6-yl]-N-[(7S,13S)-24-fluoro-(20M)-20-[2-[(1S)-1-methoxyethyl]-5-(4-methylpiperazin-1-yl)-3-pyridyl]-17,17-dimethyl-8,14-dioxo-21-(2,2,2-trifluoroethyl)-15-oxa-4-thia-9,21,27,28-tetrazapentacyclo[17.5.2.1^2,5.1^9,13.0^22,26]octacosa-1(25),2,5(28),19,22(26),23-hexaen-7-yl]-3-methyl-butanamide], for which the IC50 turned out to be 27 nM in assay [1], 5 nM at KRAS G12C-BRAF complex and 1030 nM in assay [2].

Turning to `CO[C@@H](C)c1ncc(N2CCN(C)CC2)cc1-c1c2c3cc(c(F)cc3n1CC(F)(F)F)-c1cc(O)cc(c1)C[C@H](NC(=O)[C@H](C(C)C)N(C)C(=O)[C@H]1CCN(C(=O)[C@H](F)Cl)C1)C(=O)N1CCC[C@H](N1)C(=O)OCC(C)(C)C2` (atropisomer, axis not shown; (M)) [Example 8, (3S)-1-[(2R)-2-chloro-2-fluoro-acetyl]-N-[(1S)-1-[[(8S,14S)-25-fluoro-4-hydroxy-(21M)-21-[2-[(1S)-1-methoxyethyl]-5-(4-methylpiperazin-1-yl)-3-pyridyl]-18,18-dimethyl-9,15-dioxo-22-(2,2,2-trifluoroethyl)-16-oxa-10,22,28-triazapentacyclo[18.5.2.1^2,6.1^10,14.0^23,27]nonacosa-1(26),2,4,6(29),20,23(27),24-heptaen-8-yl]carbamoyl]-2-methyl-propyl]-N-methyl-pyrrolidine-3-carboxamide], the IC50 in assay [1] was found to be 90 nM; on KRAS G12C-BRAF complex it was 43 nM; in assay [2] it was 10 nM.

For `CCn1c(-c2cc(N3CCOCC3)cnc2[C@H](C)OC)c2c3cc(c(F)cc31)-c1csc(n1)C[C@H](NC(=O)[C@H](C(C)C)N(C)C(=O)C1(F)CCN(C(=O)[C@H](F)Cl)CC1)C(=O)N1CCC[C@H](N1)C(=O)OCC(C)(C)C2` (atropisomer, axis not shown; (M)) [Example 54, 1-[(2R)-2-chloro-2-fluoro-acetyl]-N-[(1S)-1-[[(7S,13S)-21-ethyl-24-fluoro-(20M)-20-[2-[(1S)-1-methoxyethyl]-5-morpholino-3-pyridyl]-17,17-dimethyl-8,14-dioxo-15-oxa-4-thia-9,21,27,28-tetrazapentacyclo[17.5.2.1^2,5.1^9,13.0^22,26]octacosa-1(25),2,5(28),19,22(26),23-hexaen-7-yl]carbamoyl]-2-methyl-propyl]-4-fluoro-N-methyl-piperidine-4-carboxamide], the IC50 was 25 nM in assay [1], 3 nM at KRAS G12C-BRAF complex and 217 nM in assay [2].

With `CO[C@@H](C)c1ncc(N2CCN(C)CC2)cc1-c1c2c3cc(c(C)cc3n1CC(F)(F)F)-c1csc(n1)C[C@H](NC(=O)[C@H](C(C)C)N(C)C(=O)C1(F)CCN(C(=O)[C@H](F)Cl)CC1)C(=O)N1CCC[C@H](N1)C(=O)OCC(C)(C)C2` (atropisomer, axis not shown; (M)) [Example 9, 1-[(2R)-2-chloro-2-fluoro-acetyl]-4-fluoro-N-[(1S)-1-[[(7S,13S)-(20M)-20-[2-[(1S)-1-methoxyethyl]-5-(4-methylpiperazin-1-yl)-3-pyridyl]-17,17,24-trimethyl-8,14-dioxo-21-(2,2,2-trifluoroethyl)-15-oxa-4-thia-9,21,27,28-tetrazapentacyclo[17.5.2.1^2,5.1^9,13.0^22,26]octacosa-1(25),2,5(28),19,22(26),23-hexaen-7-yl]carbamoyl]-2-methyl-propyl]-N-methyl-piperidine-4-carboxamide], the IC50 in assay [1] was 23 nM; on KRAS G12C-BRAF complex it was 64 nM; in assay [2], above 10000 nM.
